Type in all cases: cell-based
In test [1] the test system is YAP/TAZ-TEAD transcription. Description: Reporter gene assay for measuring the inhibition of YAP/TAZ-TEAD transcription. The settings on record: Homo sapiens, HEK-293T; Hek293T cells transiently transfected with TEAD-responsive element luciferase reporter; 24 hours incubation. The method in brief:
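HEK293T cells transiently transfected with a TEAD-responsive luciferase reporter, plated onto pre-diluted compounds and incubated 24 h at 37 °C/5% CO2. Luminescence read after SteadyLite substrate; percent inhibition scaled between vehicle (0%) and positive control inhibitor (100%), giving IC50/EC50.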

In a further test the test system is NCI-H226. The test is described as follows: Mesothelioma cell line proliferation assay (NCI-H226). The settings on record: Homo sapiens, 144 h; NCI-H226 cells; 6 days with compound; cell viability by ATPlite. The procedure: (§1) Mesothelioma cell lines, NCI-H226 and NCI-H2052 (all sourced from the ATCC cell culture collection) are plated in 96-well plates (Corning® 96 Well White Polystyrene Microplate clear flat bottom, white polystyrene (TC-Treated)), at 1500 cells/well in full medium (RPMI 1640 ATCC modification with L-glutamine, HEPES, Phenol Red, Sodium Pyruvate, High glucose, Low sodium bicarbonate and 10% fetal bovine serum). Cells are incubated overnight at 37° C. in an incubator with 5% CO2. Then compounds, dissolved in DMSO, are added in dose-response. Cells are incubated with compound dilutions for another 6 days at 37° C. in an incubator with 5% CO2. Cell viability is quantitated using the ATPlite kit (Perkin-Elmer) and the luminescence is read-out using an Envision instrument (Perkin-Elmer). The amount of relative light units produced using the ATPlite kit is used to calculated percent of inhibition.
(§2) The activities of some example compounds are depicted in Table 9. The activity ranges A, B and C refer to EC50 values in the mesothelioma cell line proliferation assay as described as follows: “A”: EC50<1 μM; “B”: 1 μM≤EC50≤10 μM and “C”: EC50>10 μM; NT: not tested.
(In general: Cellular ATP, detected with luciferase, serves as a proxy for viable cell number.)

A further test has as its system NCI-H2052. Description: Mesothelioma cell line proliferation assay (NCI-H2052). The settings on record: Homo sapiens, 144 h; NCI-H2052 cells; 6 days with compound; cell viability by ATPlite. As to the method: as §1, §2

Drawing on patent publication US12516064B2, “Tetrahydropyridopyrimidines and related analogs for inhibiting YAP/TAZ-TEAD” (THE KATHOLIEKE UNIVERSITEIT LEUVEN, priority 2022, dated 2026), this text covers EC50 for 11 compounds.

Consider `C=CC(=O)N1CCc2c(nc(-c3ccc(C(F)(F)F)cc3)nc2-c2cn(C)nn2)C1` [Cpd. No. 87, 1-(4-(1-methyl-1H-1,2,3-triazol-4-yl)-2-(4-(trifluoromethyl)phenyl)-5,8-dihydropyrido[3,4-d]pyrimidin-7(6H)-yl)prop-2-en-1-one], for which the EC50 in test [1] was less than 1 µM; in the test on NCI-H226, 1 to 10 µM; in the test with NCI-H2052, 1 to 10 µM.
Take `C/C=C/C(=O)N1CCc2c(nc(-c3ccc(C(F)(F)F)cc3)nc2-c2ccn(C)n2)C1` [Cpd. No. 74, (E)-1-(4-(1-methyl-1H-pyrazol-3-yl)-2-(4-(trifluoromethyl)phenyl)-5,8-dihydropyrido[3,4-d]pyrimidin-7(6H)-yl)but-2-en-1-one]: the EC50 in test [1] was less than 1 µM; in the test on NCI-H226, less than 1 µM; in the test with NCI-H2052, 1 to 10 µM.
Consider `C=CC(=O)N1CCc2c(nc(-c3ccc(C(F)(F)F)cc3)nc2-c2ccn(C)n2)C1` [Cpd. No. 54, 1-(4-(1-methyl-1H-pyrazol-3-yl)-2-(4-(trifluoromethyl)phenyl)-5,8-dihydropyrido[3,4-d]pyrimidin-7(6H)-yl)prop-2-en-1-one], for which the EC50 in test [1] was less than 1 µM; in the test on NCI-H226, less than 1 µM; in the test on NCI-H2052, 1 to 10 µM.
`C=C(C)C(=O)N1CCc2c(nc(-c3ccc(C(F)(F)F)cc3)nc2-c2ccn(C)n2)C1` [Cpd. No. 77, 2-methyl-1-(4-(1-methyl-1H-pyrazol-3-yl)-2-(4-(trifluoromethyl)phenyl)-5,8-dihydropyrido[3,4-d]pyrimidin-7(6H)-yl)prop-2-en-1-one]: the EC50 in test [1] was less than 1 µM; in the test with NCI-H226, less than 1 µM; in the test on NCI-H2052, greater than 10 µM.
Regarding `C=CC(=O)N1Cc2nc(Cc3ccccc3)nc(-c3ccn(C)n3)c2C1` [Cpd. No. 20, 1-(2-benzyl-4-(1-methyl-1H-pyrazol-3-yl)-5,7-dihydro-6H-pyrrolo[3,4-d]pyrimidin-6-yl)prop-2-en-1-one], the results for the half-maximal effective concentration (EC50) (in test [1]; in the test with NCI-H226; with NCI-H2052) were less than 1 µM, less than 1 µM and 1 to 10 µM, respectively.
With `C=C(F)C(=O)N1CCc2c(nc(-c3ccc(C(F)(F)F)cc3)nc2-c2ccn(C)n2)C1` [Cpd. No. 71, 2-fluoro-1-(4-(1-methyl-1H-pyrazol-3-yl)-2-(4-(trifluoromethyl)phenyl)-5,8-dihydropyrido[3,4-d]pyrimidin-7(6H)-yl)prop-2-en-1-one], the results for the EC50 (in test [1]; in the test with NCI-H226; with NCI-H2052) were less than 1 µM, less than 1 µM and greater than 10 µM, respectively.
As for `C=CC(=O)N1CCc2c(nc(C3CCC(F)(F)CC3)nc2-c2ccn(C)n2)C1` [Cpd. No. 89, 1-(2-(4,4-difluorocyclohexyl)-4-(1-methyl-1H-pyrazol-3-yl)-5,8-dihydropyrido[3,4-d]pyrimidin-7(6H)-yl)prop-2-en-1-one], the figures for the EC50 (in test [1]; in the test on NCI-H226; in the test with NCI-H2052) were less than 1 µM, less than 1 µM and greater than 10 µM, respectively.
Take `C=CC(=O)N1CCc2c(nc(-c3ccccc3)nc2-c2ccn(C)n2)C1` [Cpd. No. 39, 1-(4-(1-methyl-1H-pyrazol-3-yl)-2-phenyl-5,8-dihydropyrido[3,4-d]pyrimidin-7(6H)-yl)prop-2-en-1-one]: the EC50 was less than 1 µM in test [1], less than 1 µM with NCI-H226 and 1 to 10 µM with NCI-H2052.
In the case of `C=CC(=O)N1CCc2c(nc(Cc3ccccc3)nc2-c2ccn(Cc3cccnc3)n2)C1` [Cpd. No. 35, 1-(2-benzyl-4-(1-(pyridin-3-ylmethyl)-1H-pyrazol-3-yl)-5,8-dihydropyrido[3,4-d]pyrimidin-7(6H)-yl)prop-2-en-1-one], the EC50 in test [1] is less than 1 µM; in the test with NCI-H226, less than 1 µM; in the test on NCI-H2052, 1 to 10 µM.
Regarding `CC#CC(=O)N1CCc2c(nc(-c3ccc(C(F)(F)F)cc3)nc2-c2ccn(C)n2)C1` [Cpd. No. 86, 1-(4-(1-methyl-1H-pyrazol-3-yl)-2-(4-(trifluoromethyl)phenyl)-5,8-dihydropyrido[3,4-d]pyrimidin-7(6H)-yl)but-2-yn-1-one], the EC50 (in test [1]; in the test on NCI-H226; in the test with NCI-H2052) was less than 1 µM each time.
As to `C=CC(=O)N1CCc2c(nc(Cc3cccc(F)c3)nc2-c2ccn(C)n2)C1` [Cpd. No. 43, 1-(2-(3-fluorobenzyl)-4-(1-methyl-1H-pyrazol-3-yl)-5,8-dihydropyrido[3,4-d]pyrimidin-7(6H)-yl)prop-2-en-1-one], the figures for the EC50 (in test [1]; with NCI-H226; in the test on NCI-H2052) were less than 1 µM, less than 1 µM and 1 to 10 µM, respectively.

For orientation: EC50 means the concentration giving half of the maximal effect.
